In ChEMBL document CHEMBL5120881, “Silencing Tautomerization to Isolate Unstable Physalins from Physalis minima” (J Nat Prod, 2022):
pIC50: −log10 of the molar value.

What was measured:
RAW264.7 = assay: Antiinflammatory activity in mouse RAW264.7 assessed as inhibition of LPS-stimulated NO production pretreated with LPS followed by compund addition by Griess reagent based microplate reader assay; format: functional, cell-based; details: Mus musculus, RAW264.7
A549 = assay: Antiproliferative activity against human A549 cells assessed as reduction in cell viability incubated for 48 hrs by CCK8 assay; format: functional, cell-based; details: A549, 48 h
HepG2 = assay: Antiproliferative activity against human HepG2 cells assessed as reduction in cell viability incubated for 48 hrs by CCK8 assay; format: functional, cell-based; details: HepG2, 48 h
MCF7 = assay: Antiproliferative activity against human MCF7 cells assessed as reduction in cell viability incubated for 48 hrs by CCK8 assay; format: functional, cell-based; details: MCF7, 48 h
SGC-7901 = assay: Antiproliferative activity against human SGC-7901 cells assessed as reduction in cell viability incubated for 48 hrs by CCK8 assay; format: functional, cell-based; details: SGC-7901, 48 h
[1] = Cytotoxicity against mouse RAW264.7 cells assessed as reduction in cell viability incubated for 48 hrs by CCK8 assay; format: toxicity, cell-based
[2] = Cytotoxicity against human L02 cells assessed as reduction in cell viability incubated for 48 hrs by CCK8 assay; format: toxicity, cell-based

Compound	pIC50 (RAW264.7)	pIC50 (A549)	pIC50 (HepG2)	pIC50 (MCF7)	pIC50 (SGC-7901)	IC50 at 48 h [1] [µM]	IC50 at 48 h [2] [µM]
CNC(=N)NCCC[C@H](N)C(=O)OC	4.37						
C[C@@]12C[C@H]3OC(=O)[C@@H]1CO[C@]14O[C@@]5([C@H]2C1=O)[C@@]3(C)OC(=O)[C@@]5(O)CC[C@H]1[C@H]4C[C@@H](O)[C@@]2(O)CC=CC(=O)[C@]12C	4.30	< 4.30	< 4.30	< 4.30	< 4.30	> 50	> 50
C[C@@]12C[C@H]3OC(=O)[C@@H]1CO[C@]14O[C@@]5([C@H]2C1=O)[C@@]3(C)OC(=O)[C@@]5(O)CC[C@H]1[C@H]4C[C@H]2O[C@]23CC=CC(=O)[C@]13C	5.10	< 4.30	< 4.30	< 4.30	< 4.30	> 50	> 50
C[C@@]12C[C@H]3OC(=O)[C@@H]1CO[C@@]14O[C@@]5([C@H]2C1=O)[C@@]3(C)OC(=O)[C@@]5(O)CC[C@H]1[C@H]4C[C@H](O)[C@]2(O)CC=CC(=O)[C@]12C	4.36	< 4.30	< 4.30	< 4.30	< 4.30	> 50	> 50
C[C@@]12C[C@H]3OC(=O)[C@@H]1CO[C@@]14O[C@]56[C@H]2[C@]1(O)[C@H](C[C@]5(O)C(=O)O[C@@]36C)[C@H]1[C@H]4CC[C@]2(O)CC=CC(=O)[C@]12C	5.44	< 4.30	< 4.30	< 4.30	< 4.30	> 50	> 50
COC(=O)C(C)(O)[C@@]1(C)C[C@@H](O)[C@]2(C)OC(=O)[C@@]3(O)CC[C@H]4[C@@H](C[C@@H](O)[C@@]5(O)CC=CC(=O)[C@]45C)[C@]4(O)O[C@@]23[C@H]1C4=O (some centres not stated)	5.54	< 4.30	< 4.30	< 4.30	< 4.30	> 50	> 50
C[C@]12OC(=O)[C@@]3(O)CC[C@H]4[C@@H](C[C@@H](O)[C@]5(O)CC=CC(=O)[C@]45C)[C@@]45OC[C@H]6C(=O)O[C@@H]1C[C@@]6(CO)[C@H](C4=O)[C@]23O5	4.36	< 4.30	< 4.30	< 4.30	< 4.30	> 50	> 50
C[C@@]12C[C@H]3OC(=O)[C@@H]1CO[C@@]14O[C@]56[C@H]2[C@]1(O)[C@H](C[C@]5(O)C(=O)O[C@@]36C)[C@H]1[C@H]4CC(O)[C@]2(O)CC=CC(=O)[C@]12C (some centres not stated)	5.05	< 4.30	< 4.30	< 4.30	< 4.30	> 50	> 50

The next lines start with results.

pIC50 (RAW264.7)	pIC50 (A549)	pIC50 (HepG2)	pIC50 (MCF7)	pIC50 (SGC-7901)	Compound	IC50 at 48 h [1] [µM]	IC50 at 48 h [2] [µM]
4.55	< 4.30	< 4.30	< 4.30	< 4.30	COC(=O)C[C@H](O)C(=O)O[C@]12CC=CC(=O)[C@]1(C)[C@H]1CC[C@]3(O)C(=O)O[C@@]4(C)[C@H]5C[C@]6(C)[C@@H](CO[C@]7(O[C@@]43[C@H]6C7=O)[C@@H]1C[C@H]2O)C(=O)O5	> 50	> 50
5.19	< 4.30	< 4.30	< 4.30	< 4.30	C[C@]12C(=O)C=CC=C1[C@H](O)C[C@@H]1[C@@H]2CC[C@]2(O)C(=O)O[C@@]3(C)[C@H]4C[C@@]5(C)[C@@H]6C(=O)[C@@]1(OC[C@@]5(O)C(=O)O4)O[C@@]632	> 50	> 50
5.51	< 4.30	< 4.30	< 4.30	< 4.30	COC(=O)CCC(=O)O[C@]12CC=CC(=O)[C@]1(C)[C@H]1CC[C@]3(O)C(=O)O[C@@]4(C)[C@H]5C[C@]6(C)[C@@H](CO[C@]7(O[C@@]43[C@H]6C7=O)[C@@H]1C[C@H]2O)C(=O)O5	> 50	> 50
4.10	< 4.30	< 4.30	< 4.30	< 4.30	C[C@@]12C[C@H]3OC(=O)[C@@H]1CO[C@]14C(=O)O[C@@]5([C@H]21)[C@@]3(C)OC(=O)[C@@]5(O)CC[C@H]1[C@H]4CC[C@@]2(O)CC=CC(=O)[C@]12C	> 50	> 50
4.12	< 4.30	< 4.30	< 4.30	< 4.30	CO[C@]12CC=CC(=O)[C@]1(C)[C@H]1CC[C@]3(O)C(=O)O[C@@]4(C)[C@H]5C[C@]6(C)[C@@H](CO[C@@]7(O[C@@]43[C@H]6C7=O)[C@@H]1C[C@H]2O)C(=O)O5	> 50	> 50
5.02	< 4.30	< 4.30	< 4.30	< 4.30	C[C@]12C(=O)C=CCC1=CC[C@@H]1[C@@H]2[C@H]2C[C@]3(O)C(=O)O[C@@]4(C)[C@H]5C[C@@]6(C)[C@@H]7[C@@]2(O)[C@@]1(OC[C@H]6C(=O)O5)O[C@@]743	> 50	> 50
4.83	< 4.30	< 4.30	< 4.30	< 4.30	C[C@@]12C[C@H]3OC(=O)[C@]1(O)CO[C@@]14O[C@@]5([C@H]2C1=O)[C@@]3(C)OC(=O)[C@@]5(O)CC[C@H]1[C@H]4C[C@H](O)[C@]2(O)CC=CC(=O)[C@]12C	> 50	> 50
5.02	< 4.30	< 4.30	< 4.30	< 4.30	C=C1C(=O)O[C@@H]2C[C@@]1(C)[C@@H]1C(=O)[C@@]3(O)O[C@]14[C@@]2(C)OC(=O)[C@@]4(O)CC[C@H]1[C@H]3[C@H](O)C=C2CC=CC(=O)[C@@]21C	> 50	> 50
4.76	< 4.30	< 4.30	< 4.30	< 4.30	C[C@]12C(=O)CC=CC1=CC[C@@H]1[C@@H]2CC[C@]2(O)C(=O)O[C@@]3(C)[C@H]4C[C@@]5(C)[C@@H]6C(=O)[C@@]1(OC[C@@]5(O)C(=O)O4)O[C@@]632	> 50	> 50
4.87	< 4.30	< 4.30	< 4.30	< 4.30	C[C@@]12C[C@H]3OC(=O)[C@@H]1CO[C@@]14O[C@@]5([C@H]2C1=O)[C@@]3(C)OC(=O)[C@@]5(O)CC[C@H]1[C@H]4C[C@@H](O)[C@@]2(OC(=O)c3cccnc3)CC=CC(=O)[C@]12C	> 50	> 50
4.49	< 4.30	< 4.30	< 4.30	< 4.30	COC(=O)C[C@@H](O)C(=O)O[C@]12CC=CC(=O)[C@]1(C)[C@H]1CC[C@]3(O)C(=O)O[C@@]4(C)[C@H]5C[C@]6(C)[C@@H](CO[C@]7(O[C@@]43[C@H]6C7=O)[C@@H]1C[C@H]2O)C(=O)O5	> 50	> 50
